Results published in ChEMBL document CHEMBL5143618, “Design, synthesis, and antitumor activity evaluation of novel acyl sulfonamide spirodienones” (Bioorg Med Chem, 2022).

Assays:
MDA-MB-231 = assay: cells; format: functional, cell-based; details: Homo sapiens, MDA-MB-231, 74 h
Description: Antiproliferative activity against human MDA-MB-231 cells assessed as inhibition of cell growth measured after 74 hrs by SRB assay

A549 = assay: cells; format: functional, cell-based; details: Homo sapiens, A549, 74 h
Description: Antiproliferative activity against human A549 cells assessed as inhibition of cell growth measured after 74 hrs by SRB assay

HeLa = assay: cells; format: functional, cell-based; details: Homo sapiens, 74 h
Description: Antiproliferative activity against human HeLa cells assessed as inhibition of cell growth measured after 74 hrs by SRB assay

HepG2 = assay: Antiproliferative activity against human HepG2 cells assessed as inhibition of cell growth measured after 74 hrs by SRB assay; format: functional, cell-based; details: HepG2, 74 h
[1] = molecular target: 72 kDa type IV collagenase (Homo sapiens, UniProt P08253); assay: Inhibition of MMP2 (unknown origin) using Mca-PLGLDpaAR fluorescent substrate incubated for 2 hrs by microplate reader method
Chain of 72 kDa type IV collagenase (P08253 whole entry): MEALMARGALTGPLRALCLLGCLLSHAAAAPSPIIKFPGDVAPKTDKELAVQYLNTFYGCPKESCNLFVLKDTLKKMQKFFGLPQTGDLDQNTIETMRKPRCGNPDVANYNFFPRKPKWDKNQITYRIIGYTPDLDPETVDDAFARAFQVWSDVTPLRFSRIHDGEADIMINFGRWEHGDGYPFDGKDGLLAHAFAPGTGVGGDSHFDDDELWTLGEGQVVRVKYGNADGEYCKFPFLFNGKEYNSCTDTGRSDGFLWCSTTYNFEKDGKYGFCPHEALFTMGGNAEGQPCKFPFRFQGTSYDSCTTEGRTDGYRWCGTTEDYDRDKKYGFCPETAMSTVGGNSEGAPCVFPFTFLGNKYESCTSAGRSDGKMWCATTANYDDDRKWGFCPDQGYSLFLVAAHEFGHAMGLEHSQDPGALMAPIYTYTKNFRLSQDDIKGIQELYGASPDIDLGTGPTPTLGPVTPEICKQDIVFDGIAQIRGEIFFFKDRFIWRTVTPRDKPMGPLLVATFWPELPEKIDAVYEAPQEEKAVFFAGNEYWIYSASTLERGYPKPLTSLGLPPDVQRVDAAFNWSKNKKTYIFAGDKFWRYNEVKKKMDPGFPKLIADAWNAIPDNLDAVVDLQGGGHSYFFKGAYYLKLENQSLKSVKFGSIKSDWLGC

Row | IC50 (MDA-MB-231) | IC50 (A549) | IC50 (HeLa) | IC50 (HepG2) | IC50 [1] | SMILES
1 | > 10 µM | > 10 µM | > 10 µM | > 10 µM | – | O=C1C=CC2(C=C1)OCC(=O)N2S(=O)(=O)c1ccc([N+](=O)[O-])cc1
2 | – | – | – | – | 0.00059 µM | COc1ccc(S(=O)(=O)N(CC(=O)NO)CC(C)C)cc1
3 | > 10 µM | 0.05 µM | 0.03 µM | > 10 µM | – | O=C1C=CC2(C=C1)OCC(=O)N2S(=O)(=O)c1ccc(F)c(F)c1
4 | > 10 µM | > 10 µM | 0.14 µM | > 10 µM | – | O=C1C=CC2(C=C1)OCC(=O)N2S(=O)(=O)c1ccccc1OC(F)(F)F
5 | > 10 µM | > 10 µM | 7.53 µM | > 10 µM | – | CS(=O)(=O)N1C(=O)COC12C=CC(=O)C=C2
6 | > 10 µM | > 10 µM | 0.27 µM | > 10 µM | – | CC1OC2(C=CC(=O)C=C2)N(S(=O)(=O)c2cccs2)C1=O (stereo not drawn)
7 | 2.8 µM | > 10 µM | > 10 µM | 0.86 µM | – | O=C1C=CC2(C=C1)OCC(=O)N2S(=O)(=O)c1ccc(Cl)cc1
8 | > 10 µM | 0.005 µM | 0.88 µM | > 10 µM | – | O=C1C=CC2(C=C1)OCC(=O)N2S(=O)(=O)c1ccc(N2CCCC2=O)cc1
9 | – | – | – | 0.013 µM | – | CC(=O)O[C@H]1C(=O)[C@@]2(C)[C@H]([C@H](OC(=O)c3ccccc3)[C@]3(O)C[C@H](OC(=O)[C@H](O)[C@@H](NC(=O)c4ccccc4)c4ccccc4)C(C)=C1C3(C)C)[C@]1(OC(C)=O)CO[C@@H]1C[C@@H]2O [PACLITAXEL]
10 | > 10 µM | > 10 µM | 3.72 µM | 0.75 µM | – | Cc1ccccc1S(=O)(=O)N1C(=O)COC12C=CC(=O)C=C2
11 | 0.02 µM | > 10 µM | 3.42 µM | > 10 µM | – | O=C1C=CC2(C=C1)OCC(=O)N2S(=O)(=O)c1cccs1
